pEC50, pIC50: −log10 of the molar value. ≈ marks a conversion by molar mass, not a printed value. Calls of active or inactive are those of the source. No cut-off for these calls is given here.
Tests used:
[1] = molecular target: T1, Epidermal growth factor receptor (Homo sapiens, UniProt P00533); experiment: Inhibition of wild-type EGFR autophosphorylation in human LoVo cells incubated for 2 hrs followed by EGF-stiumlation for 10 mins by ELISA; assay type: cell-based
[2] = molecular target: T2, Epidermal growth factor receptor (Homo sapiens, UniProt P00533, L858R/T790M); experiment: Inhibition of EGFR T790M/L858R double mutant autophosphorylation in human NCI-H1975 cells incubated for 2 hrs by ELISA; assay type: cell-based
T2 sequence (P00533 25-1210 T790M/L858R limits assumed): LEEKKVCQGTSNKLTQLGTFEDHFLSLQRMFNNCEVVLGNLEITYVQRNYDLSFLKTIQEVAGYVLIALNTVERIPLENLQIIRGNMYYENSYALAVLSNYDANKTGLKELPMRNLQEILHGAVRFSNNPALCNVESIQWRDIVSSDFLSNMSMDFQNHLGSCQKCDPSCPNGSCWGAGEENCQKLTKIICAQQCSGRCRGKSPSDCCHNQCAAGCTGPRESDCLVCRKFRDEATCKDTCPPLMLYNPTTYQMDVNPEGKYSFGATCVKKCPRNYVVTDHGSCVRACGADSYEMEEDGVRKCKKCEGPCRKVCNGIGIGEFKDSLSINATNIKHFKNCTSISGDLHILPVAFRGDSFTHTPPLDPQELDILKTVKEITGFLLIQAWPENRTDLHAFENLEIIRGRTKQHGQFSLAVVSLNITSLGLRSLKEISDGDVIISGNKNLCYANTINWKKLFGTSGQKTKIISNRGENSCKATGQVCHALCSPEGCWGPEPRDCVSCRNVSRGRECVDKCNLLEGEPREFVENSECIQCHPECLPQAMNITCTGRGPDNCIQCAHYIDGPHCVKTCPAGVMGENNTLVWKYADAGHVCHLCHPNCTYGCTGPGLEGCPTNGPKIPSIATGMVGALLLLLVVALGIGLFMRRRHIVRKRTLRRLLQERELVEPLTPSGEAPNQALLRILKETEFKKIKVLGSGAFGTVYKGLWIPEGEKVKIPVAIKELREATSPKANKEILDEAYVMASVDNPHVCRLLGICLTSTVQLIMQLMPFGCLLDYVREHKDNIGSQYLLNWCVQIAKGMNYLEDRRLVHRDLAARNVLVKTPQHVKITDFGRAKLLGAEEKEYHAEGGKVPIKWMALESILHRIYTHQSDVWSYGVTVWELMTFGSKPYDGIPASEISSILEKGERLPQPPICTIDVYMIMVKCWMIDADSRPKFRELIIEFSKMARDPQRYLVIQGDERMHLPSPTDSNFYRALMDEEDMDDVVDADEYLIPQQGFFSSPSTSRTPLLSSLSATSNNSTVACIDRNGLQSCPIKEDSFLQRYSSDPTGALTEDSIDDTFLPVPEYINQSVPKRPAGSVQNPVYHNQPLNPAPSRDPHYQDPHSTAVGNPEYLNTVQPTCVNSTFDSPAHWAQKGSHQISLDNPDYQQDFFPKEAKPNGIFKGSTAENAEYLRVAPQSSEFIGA

[3] = Solubility of compound at pH 7.4; assay type: physicochemical; conditions: buffer
[4] = molecular target: Epidermal growth factor receptor (Homo sapiens, UniProt P00533, EX19DEL); experiment: Inhibition of EGFR exon19 deletion activating mutant autophosphorylation in human PC9 cells incubated for 2 hrs by ELISA; assay type: cell-based, PC-9
Epidermal growth factor receptor (Homo sapiens, UniProt P00533, EX19DEL), sequence (P00533 whole entry, looked up, stated change not applied): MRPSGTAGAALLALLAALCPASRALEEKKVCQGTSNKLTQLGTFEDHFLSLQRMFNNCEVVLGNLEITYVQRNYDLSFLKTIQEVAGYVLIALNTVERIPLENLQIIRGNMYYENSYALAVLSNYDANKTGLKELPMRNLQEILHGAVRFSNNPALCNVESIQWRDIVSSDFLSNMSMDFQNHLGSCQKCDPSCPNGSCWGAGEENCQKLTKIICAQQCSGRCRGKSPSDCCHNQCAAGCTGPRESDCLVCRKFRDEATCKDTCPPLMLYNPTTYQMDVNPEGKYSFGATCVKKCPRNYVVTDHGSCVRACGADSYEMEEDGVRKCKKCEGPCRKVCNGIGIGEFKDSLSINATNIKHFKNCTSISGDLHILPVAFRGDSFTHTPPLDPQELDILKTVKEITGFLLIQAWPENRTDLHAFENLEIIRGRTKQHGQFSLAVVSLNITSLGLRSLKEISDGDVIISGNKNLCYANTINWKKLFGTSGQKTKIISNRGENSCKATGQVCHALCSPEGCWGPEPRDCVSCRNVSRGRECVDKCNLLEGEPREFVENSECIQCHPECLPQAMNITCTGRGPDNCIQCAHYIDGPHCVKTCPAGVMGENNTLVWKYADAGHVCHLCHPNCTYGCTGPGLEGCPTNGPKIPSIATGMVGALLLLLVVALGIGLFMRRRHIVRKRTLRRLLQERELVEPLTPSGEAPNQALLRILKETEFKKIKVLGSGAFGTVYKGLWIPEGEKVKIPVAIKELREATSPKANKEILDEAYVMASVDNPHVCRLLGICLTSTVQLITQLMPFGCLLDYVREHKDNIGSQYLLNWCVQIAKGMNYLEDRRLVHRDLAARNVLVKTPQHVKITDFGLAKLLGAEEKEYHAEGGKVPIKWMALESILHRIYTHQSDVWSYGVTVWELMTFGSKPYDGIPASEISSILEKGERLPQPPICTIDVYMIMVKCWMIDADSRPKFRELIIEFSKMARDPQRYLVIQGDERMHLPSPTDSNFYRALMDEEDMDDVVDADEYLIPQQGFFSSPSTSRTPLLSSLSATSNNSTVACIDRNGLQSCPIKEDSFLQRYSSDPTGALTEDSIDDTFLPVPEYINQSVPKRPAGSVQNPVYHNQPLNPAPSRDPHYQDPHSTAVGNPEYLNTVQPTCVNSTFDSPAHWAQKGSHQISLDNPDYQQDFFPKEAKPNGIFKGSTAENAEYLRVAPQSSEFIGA

[5] = Intrinsic clearance in human liver microsomes; assay type: ADME; conditions: read-out: CLH
[6] = molecular target: T2, Epidermal growth factor receptor; experiment: Inhibition of recombinant N-terminal GST-tagged human EGFR T790M/L858R double mutant using biotinylated TK substrate incubated for 50 mins by HTRF assay; assay type: protein assay
[7] = Chemical stability of compound; assay type: physicochemical
[8] = test system: Epidermal growth factor receptor (Homo sapiens), P00533 [T790M]; experiment: Reversible inhibition of EGFR T790M mutant (unknown origin)
Epidermal growth factor receptor (Homo sapiens), P00533 [T790M], sequence (P00533 whole entry T790M): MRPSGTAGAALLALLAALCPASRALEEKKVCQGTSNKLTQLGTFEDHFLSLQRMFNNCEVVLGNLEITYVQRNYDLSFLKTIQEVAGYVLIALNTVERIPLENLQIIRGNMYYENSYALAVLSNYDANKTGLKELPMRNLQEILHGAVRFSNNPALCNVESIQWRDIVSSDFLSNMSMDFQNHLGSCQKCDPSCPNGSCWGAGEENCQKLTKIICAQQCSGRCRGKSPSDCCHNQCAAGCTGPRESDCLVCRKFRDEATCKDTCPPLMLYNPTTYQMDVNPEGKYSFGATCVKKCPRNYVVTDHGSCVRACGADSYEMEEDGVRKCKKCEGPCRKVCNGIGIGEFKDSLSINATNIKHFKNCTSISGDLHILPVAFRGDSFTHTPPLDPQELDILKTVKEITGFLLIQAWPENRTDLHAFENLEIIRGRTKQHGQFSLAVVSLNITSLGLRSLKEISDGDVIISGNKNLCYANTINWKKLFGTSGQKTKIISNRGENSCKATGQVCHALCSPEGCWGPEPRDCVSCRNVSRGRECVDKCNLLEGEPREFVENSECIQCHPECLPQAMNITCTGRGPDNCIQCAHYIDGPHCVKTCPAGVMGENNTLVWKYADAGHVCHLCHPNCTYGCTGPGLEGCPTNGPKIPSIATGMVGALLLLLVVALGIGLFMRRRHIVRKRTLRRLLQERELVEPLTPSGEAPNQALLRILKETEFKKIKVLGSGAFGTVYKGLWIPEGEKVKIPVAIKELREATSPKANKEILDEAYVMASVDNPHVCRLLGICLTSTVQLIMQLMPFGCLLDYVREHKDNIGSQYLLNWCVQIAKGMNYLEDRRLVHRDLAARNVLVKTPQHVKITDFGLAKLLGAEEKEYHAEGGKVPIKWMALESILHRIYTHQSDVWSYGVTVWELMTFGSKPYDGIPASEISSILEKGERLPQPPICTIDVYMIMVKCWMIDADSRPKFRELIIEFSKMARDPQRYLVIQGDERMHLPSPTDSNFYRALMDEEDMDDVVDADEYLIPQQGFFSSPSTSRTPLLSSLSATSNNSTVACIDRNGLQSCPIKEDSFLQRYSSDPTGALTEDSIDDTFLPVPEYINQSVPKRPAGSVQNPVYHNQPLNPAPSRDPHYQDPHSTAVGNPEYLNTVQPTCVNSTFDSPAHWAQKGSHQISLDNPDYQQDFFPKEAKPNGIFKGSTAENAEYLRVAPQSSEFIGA

Homo sapiens = species on record: Homo sapiens; experiment: Selectivity ratio of IC50 for wild-type EGFR (unknown origin) to IC50 for recombinant N-terminal GST-tagged human EGFR T790M/L858R double mutant
[9] = Antiproliferative activity against human Calu6 cells incubated for 72 hrs by SYTOX green nucleic acid stain-based fluorescence analysis; assay type: cell-based, Calu-6
NCI-H1975 [10] = experiment: Antiproliferative activity against human NCI-H1975 cells assessed as growth inhibition incubated for 72 hrs by SYTOX green nucleic acid stain-based fluorescence analysis; assay type: functional; conditions: NCI-H1975, 72 h
[11] = test system: Epidermal growth factor receptor (Homo sapiens), P00533 [L858R,T790M]; experiment: Inhibition of human EGFR T790M/L858R double mutant at 1 uM; assay type: protein assay
[12] = molecular target: T1, Epidermal growth factor receptor; experiment: Inhibition of wild-type human EGFR at 1 uM
[13] = Antitumor activity against human PC9 cells harboring EGFR exon19 deletion activating mutant xenografted in mouse at 50 mg/kg/day, po qd for 7 days; assay type: functional; conditions: PC-9, po, 168 h, read-out: TGI
[14] = Antiproliferative activity against human PC9 cells assessed as growth inhibition incubated for 72 hrs by SYTOX green nucleic acid stain-based fluorescence analysis; assay type: functional; conditions: PC-9, 72 h
NCI-H1975 [15] = experiment: Antitumor activity against human NCI-H1975 cells harboring EGFR T790M/L858R double mutant xenografted in mouse at 50 mg/kg/day, po qd for 7 days; assay type: functional; conditions: 168 h, read-out: TGI
Mus musculus = experiment: T>EC50 in female nude mouse assessed as time duration during which plasma concentration covers cellular EC50 for EGFR T790M/L858R double mutant autophosphorylation in human NCI-H1975 cells at 50 mg/kg, po; assay type: ADME, organism-based; conditions: in vivo
[16] = Selectivity ratio of GI50 for human Calu6 cells to GI50 for human NCI-H1975 cells; assay type: ADME, cell-based; conditions: Calu6 cells and NCI-H1975 cells, read-out: RatioGI50
[17] = molecular target: T3, Tyrosine-protein kinase JAK3 (Homo sapiens) (UniProt P52333); experiment: Inhibition of human JAK3 at 1 uM
T3 sequence (whole entry): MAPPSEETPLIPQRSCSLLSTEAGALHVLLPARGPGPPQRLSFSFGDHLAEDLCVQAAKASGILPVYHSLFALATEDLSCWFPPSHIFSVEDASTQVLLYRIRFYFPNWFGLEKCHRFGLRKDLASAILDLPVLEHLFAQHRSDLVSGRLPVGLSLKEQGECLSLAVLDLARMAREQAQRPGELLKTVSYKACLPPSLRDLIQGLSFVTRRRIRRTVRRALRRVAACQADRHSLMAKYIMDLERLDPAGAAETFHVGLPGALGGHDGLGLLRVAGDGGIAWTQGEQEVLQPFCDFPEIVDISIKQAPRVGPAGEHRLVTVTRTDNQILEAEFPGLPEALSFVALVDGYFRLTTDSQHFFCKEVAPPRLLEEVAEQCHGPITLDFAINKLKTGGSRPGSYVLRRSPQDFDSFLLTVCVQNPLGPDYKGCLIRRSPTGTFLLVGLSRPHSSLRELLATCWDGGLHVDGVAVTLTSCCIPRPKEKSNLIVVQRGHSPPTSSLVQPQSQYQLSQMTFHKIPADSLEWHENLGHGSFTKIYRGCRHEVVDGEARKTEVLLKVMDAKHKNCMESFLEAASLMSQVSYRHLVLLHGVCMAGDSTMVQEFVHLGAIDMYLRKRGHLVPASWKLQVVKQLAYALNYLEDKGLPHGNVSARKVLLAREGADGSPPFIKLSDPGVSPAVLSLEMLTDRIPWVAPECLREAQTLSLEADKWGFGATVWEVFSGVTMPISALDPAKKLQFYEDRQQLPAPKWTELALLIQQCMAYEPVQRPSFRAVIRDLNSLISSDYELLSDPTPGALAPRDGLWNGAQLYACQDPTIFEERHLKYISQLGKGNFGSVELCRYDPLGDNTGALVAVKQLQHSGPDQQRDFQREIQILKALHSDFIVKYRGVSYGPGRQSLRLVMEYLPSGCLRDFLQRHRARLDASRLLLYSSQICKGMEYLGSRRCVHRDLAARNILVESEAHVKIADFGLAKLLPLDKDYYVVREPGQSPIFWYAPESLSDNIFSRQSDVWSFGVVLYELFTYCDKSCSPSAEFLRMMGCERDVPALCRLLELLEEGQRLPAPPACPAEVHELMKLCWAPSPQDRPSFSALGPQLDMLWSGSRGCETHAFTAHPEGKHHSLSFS

A-431 = experiment: Antitumor activity against human A431 cells harboring wild-type EGFR xenografted in mouse at 50 mg/kg/day, po qd for 7 days; assay type: functional; conditions: A-431, po, 168 h, read-out: TGI

T1 sequence (P00533 whole entry): as the sequence (P00533 whole entry, looked up, stated change not applied) above

Structure (SMILES) | pEC50 [1] | pEC50 [2] | solubility [3] [µM] | pEC50 [4] | microsomal CLint [5] [µL/min/mg] | further results
C=CC(=O)Nc1cc(-n2c(-c3nc(-c4cnn(C5CCN(C)CC5)c4)cnc3N)nc3ccccc32)ccc1OC | < 4.70 | 5.87 | < 10 | 6.43 |  | 
C=CC(=O)Nc1ccc(F)c(-n2c(-c3nc(-c4cnn(C5CCN(C)CC5)c4)cnc3N)nc3ccccc32)c1 | 5.36 | 7.14 | < 10 | 7.37 |  | 
C=CC(=O)Nc1cccc(-n2c(-c3nc(-c4cnn(C5CCN(C(=O)CN(C)C)CC5)c4)cnc3N)nc3ccccc32)c1 | 5.94 | 7.82 | 18 (≈ 10.6 µg/mL) | 7.89 | 66 | 
C=CC(=O)Nc1cccc(-n2c(-c3nc(-c4cnn(C)c4)cnc3N)nc3ccccc32)c1 | 5.97 | 8.00 | < 10 | 8.05 | 24 | 
C=CC(=O)Nc1cccc(-n2c(-c3nc(-c4cnn(C5CCN(C(C)C)CC5)c4)cnc3N)nc3ccccc32)c1 | 6.12 | 7.85 | < 10 | 8.05 | 37 | 
C=CC(=O)Nc1cccc(-n2c(-c3nc(-c4cnn(C5CCN(C)CC5)c4)cnc3N)nc3ccccc32)c1F | 5.69 | 7.64 | < 10 | 7.59 |  | 
C=CC(=O)NCCn1c(-c2nc(-c3cnn(C4CCN(C)CC4)c3)cnc2N)nc2ccccc21 |  | 4.83 |  |  |  | pIC50 [6]: 5.66
C=CC(=O)Nc1ccc(-n2c(-c3nc(-c4cnn(C5CCN(C)CC5)c4)cnc3N)nc3ccccc32)cc1 | 5.47 | 6.26 |  | 6.92 |  | 
C=CC(=O)Nc1cccc(-n2c(-c3nc(-c4cnn(C5CCN(C)CC5)c4)cnc3N)nc3ccncc32)c1 | < 4.82 | 6.82 | 540 (≈ 281 µg/mL) | 7.00 | 68 | 
CC(=O)Nc1cccc(-n2c(-c3nc(-c4cnn(C5CCN(C)CC5)c4)cnc3N)nc3ccccc32)c1 | < 4.52 | < 4.52 |  | 5.10 |  | 
C=CC(=O)Nc1cccc(-n2c(-c3nc(-c4cnn(CCO)c4)cnc3N)nc3ccccc32)c1 | 5.65 | 7.92 | < 10 | 8.10 | 54 | 
C=CC(=O)Nc1ccccc1Cn1c(-c2nc(-c3cnn(C4CCN(C)CC4)c3)cnc2N)nc2ccccc21 | 6.38 | 8.15 | 35 (≈ 18.7 µg/mL) | 8.52 |  | Stability [7]: Unstable
CN1CCC(n2cc(-c3cnc(N)c(-c4nc5ccccc5[nH]4)n3)cn2)CC1 |  |  |  |  |  | pIC50 [6]: 6.54; inhibition [8]: Active; Ratio IC50 (Homo sapiens): 5
C=CC(=O)Nc1cccc(-n2c(-c3nc(-c4cnn(C5CCN(CC)CC5)c4)cnc3N)nc3ccccc32)c1 | 5.71 | 8.05 | < 10 | 7.80 | 197 | 
C=CC(=O)Nc1cccc(-n2c(-c3nc(-c4cnn(C5CCN(C(C)=O)CC5)c4)cnc3N)nc3ccccc32)c1 | 5.45 | 7.66 | < 10 | 7.64 | > 300 | 
CCn1c(-c2nc(-c3cnn(C4CCN(C)CC4)c3)cnc2N)nc2ccccc21 |  |  |  |  |  | pIC50 [6]: 7.30; inhibition [8]: Active; Ratio IC50 (Homo sapiens): 5
C=CC(=O)NCCCn1c(-c2nc(-c3cnn(C4CCN(C)CC4)c3)cnc2N)nc2ccccc21 |  | 5.77 |  |  |  | pIC50 [6]: 6.70
C=CC(=O)Nc1cccc(-n2c(-c3nc(-c4cnn(CCN5CCN(C)CC5)c4)cnc3N)nc3ccccc32)c1 | 5.64 | 7.82 | 30 (≈ 16.5 µg/mL) | 7.82 | 60 | 
C=CC(=O)Nc1cccc(-n2c(-c3nc(-c4cnn(C5CCN(C)CC5)c4)cnc3N)nc3ccccc32)c1 | 6.01 | 7.85 | < 10 | 8.05 | 120 | GI50 at 72 h [9]: 1700 nM; GI50 (NCI-H1975 [10]): 25 nM; inhibition [11]: > 75%; inhibition [12]: > 75%; inhibition in vivo at 50 mg/kg/day [13]: 238%; GI50 [14]: 16 nM; inhibition in vivo at 50 mg/kg/day (NCI-H1975 [15]): 117%; pIC50 [6]: > 9.00; Time (Mus musculus): 6 h; selectivity ratio [16]: > 60; inhibition [17]: > 75%; inhibition in vivo at 50 mg/kg/day (A-431): 21%
C=CC(=O)N(C)c1cccc(-n2c(-c3nc(-c4cnn(C5CCN(C)CC5)c4)cnc3N)nc3ccccc32)c1 | 4.96 | 6.41 |  | 6.60 |  | 
C=CC(=O)Nc1cccc(-n2c(-c3nc(-c4cnn(C5CCN(C)CC5)c4)cnc3N)nc3cnccc32)c1 | 5.36 | 7.74 | 300 (≈ 156 µg/mL) | 8.00 | 169 | 
C=CC(=O)Nc1cccc(-n2c(-c3nc(-c4cnn(CCN5CCOCC5)c4)cnc3N)nc3ccccc32)c1 | 5.30 | 7.62 | < 10 | 7.66 | 298 | 
C=CC(=O)Nc1cccc(-n2c(-c3nc(-c4cnn(C5CCN(C(=O)CO)CC5)c4)cnc3N)nc3ccccc32)c1 | 5.52 | 7.62 | < 10 | 7.74 | > 300 | 
C=C(C)C(=O)Nc1cccc(-n2c(-c3nc(-c4cnn(C5CCN(C)CC5)c4)cnc3N)nc3ccccc32)c1 | < 4.52 | < 4.70 |  | 5.04 |  | 
C=CC(=O)Nc1ccc(Cn2c(-c3nc(-c4cnn(C5CCN(C)CC5)c4)cnc3N)nc3ccccc32)cc1 | < 4.52 | 5.75 |  | 5.30 |  | 
C=CC(=O)Nc1cccc(Cn2c(-c3nc(-c4cnn(C5CCN(C)CC5)c4)cnc3N)nc3ccccc32)c1 | < 4.60 | 6.44 |  | 6.55 |  | 

— ChEMBL document CHEMBL3813644, “Utilization of Structure-Based Design to Identify Novel, Irreversible Inhibitors of EGFR Harboring the T790M Mutation” (ACS Med Chem Lett, 2016)
